Data from patent US9464064B2, “HCV helicase inhibitors and methods of use thereof” (University of Kansas, priority 2011, dated 2016).

Biological target: T1, HCV NS3 helicase NS3h_1b(con1) (Hepatitis C virus genotype 1b, UniProt Q9WMX2)
T1 construct: truncated C-terminally His-tagged NS3 proteins lacking the N-terminal protease, called NS3h; His-tag (C); made in house
Experiment: MBHA screen of NCI mechanistic set library at 20 μM (percent inhibition, compound interference)
Type: biochemical
Settings: compounds at 20 μM; for Inh. (%) (Inhibition): calculated from Equation 1
In short: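 Molecular beacon-based DNA unwinding assay; compounds screened at 20 μM in triplicate, with DMSO-only negative and 500 nM dT20 positive controls. Fluorescence (ex 643/em 670 nm) was read before and 30 min after adding ATP to 1 mM. Percent inhibition came from the change relative to DMSO controls; interference from pre-ATP fluorescence versus DMSO controls.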

[1] = assay interference calculated with Equation 2 (fluorescence vs DMSO-only controls before ATP)
[2] = MBHA with DNA substrate, assay interference calculated with Equation 2

T1 sequence (Q9WMX2 1192-1657): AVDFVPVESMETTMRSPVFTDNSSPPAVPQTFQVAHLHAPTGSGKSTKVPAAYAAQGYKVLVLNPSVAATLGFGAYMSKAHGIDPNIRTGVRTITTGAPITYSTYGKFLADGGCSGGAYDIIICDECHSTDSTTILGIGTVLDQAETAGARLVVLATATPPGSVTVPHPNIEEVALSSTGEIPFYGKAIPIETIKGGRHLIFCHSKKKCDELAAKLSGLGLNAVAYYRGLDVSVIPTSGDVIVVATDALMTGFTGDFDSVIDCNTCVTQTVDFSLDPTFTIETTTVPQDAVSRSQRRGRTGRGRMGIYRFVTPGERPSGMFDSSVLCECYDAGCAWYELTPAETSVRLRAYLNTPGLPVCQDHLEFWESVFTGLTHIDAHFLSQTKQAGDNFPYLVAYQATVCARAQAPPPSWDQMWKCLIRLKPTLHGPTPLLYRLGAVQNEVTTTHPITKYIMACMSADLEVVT

Compound	Inh. (%) (Inhibition) (MBHA with a DNA substrate)	Int.* (Ratio) (Interference) [1]	Int.* (Ratio) (Interference) [2]	Inh. (%) (Inhibition) (MBHA with DNA substrate)
CC(C)c1oc(=O)cc2c1[C@@H](O)[C@H]1OC(=O)[C@@]3(C)[C@@H](O)[C@H]4O[C@H]4[C@@]2(C)[C@@H]13 [Compound 211500]	10.6	0.89	–	–
O=c1oc2ccccc2cc1-c1ccc([N+](=O)[O-])cc1 [Compound 215989]	–	–	0.82	21.9
C[n+]1ccc(Nc2ccc(NC(=O)c3ccc(Nc4cc[n+](C)c5ccc([N+](=O)[O-])cc45)cc3[N+](=O)[O-])cc2)cc1.Cl [Compound 218439]	–	–	0.46	−8.9
c1ccc2c(NCCCCCCCCNc3c4ccccc4nc4ccccc34)c3ccccc3nc2c1 [Compound 219734]	–	–	0.26	41.8
Cc1[nH]c(=O)[nH]c(=O)c1/C=C/C(=O)NC(CO)CC(C)C (stereo not shown) [Compound 224117]	–	–	1.01	−2.8
NC(=O)OCc1c(O)c2c(c(O)c1COC(N)=O)C(=O)C=CC2=O [Compound 224124]	–	–	0.93	37.7
O=C(O)CC(NC(=O)CP(=O)(O)O)C(=O)O (stereo not shown) [Compound 224131]	–	–	0.86	12.3
CO[C@H]1C[C@@H]2CC[C@@H](C)[C@@](O)(O2)C(=O)C(=O)N2CCCC[C@H]2C(=O)O[C@H]([C@H](C)C[C@@H]2CC[C@@H](O)[C@H](OC)C2)CC(=O)[C@H](C)/C=C(\C)[C@@H](O)[C@@H](OC)C(=O)[C@H](C)C[C@H](C)/C=C/C=C/C=C/1C [Compound 226080]	–	–	0.90	−1.0
CSCC(CO)NC(=O)/C=C/c1c(C)[nH]c(=O)[nH]c1=O (stereo not shown) [Compound 233872]	–	–	1.00	17.4
O=C([O-])c1ccc(Nc2c3ccccc3nc3ccccc23)cc1.[Na+] [Compound 235082]	−6.4	1.02	–	–
COC1C(O)=C2C(=O)OC(C)(O)/C=C/C=C\C=C/C=C/C(c3ccccc3)NC(=O)/C=C/C=C/C=C/C=C/C2(C)C1O (stereo not shown) [Compound 236657]	−19.9	0.91	–	–
COC1/C=C/OC2(C)Oc3c(C)c(O)c4c(c3C2=O)C(=O)C=C(NC(=O)/C(C)=C\C=C\C(C)C(OC=O)C(C)C(O)C(C)C(OC(C)=O)C1C)C4=O (stereo not shown) [Compound 239375]	–	–	0.90	−18.3
Cc1cc(N(CC(C)Br)CC(C)Br)ccc1N=Nc1ccccc1C(=O)O (stereo not shown) [Compound 240419]	–	–	0.94	−2.7
CCCC[S+]([O-])CC(CO)NC(=O)/C=C\c1c(C)[nH]c(=O)[nH]c1=O (stereo not shown) [Compound 241509]	–	–	1.01	−2.4
COc1cc(O)c(Cc2ccccc2O)c(O)c1C(=O)CCc1ccccc1 [Compound 241906]	−6.2	0.88	–	–
CC[C@@]1(O)C[C@H](O[C@H]2C[C@H](N(C)C)[C@H](O[C@H]3C[C@@H]4O[C@H]5CC(=O)[C@H](C)O[C@H]5O[C@@H]4[C@H](C)O3)[C@H](C)O2)c2c(cc3c(c2O)C(=O)c2c(O)ccc(O)c2C3=O)[C@H]1C(=O)OC [Compound 243023]	–	–	0.46	24.2
CCS(=O)(=O)Nc1ccc(Nc2c3ccccc3nc3ccccc23)c(OC)c1.CS(=O)(=O)O [Compound 243928]	–	–	0.87	3.4
CC(=O)OC[C@H]1O[C@@H](NC(=O)N(CCCl)N=O)[C@H](OC(C)=O)[C@@H](OC(C)=O)[C@@H]1OC(C)=O [Compound 245432]	–	–	1.06	37.4
COc1cc(NS(C)(=O)=O)ccc1Nc1c2ccccc2nc2ccccc12 [Compound 249992]	–	–	1.08	3.0
CNC(=O)ON(C(C)=O)C(=O)NC [Compound 253272]	–	–	0.97	5.5
O=C([CH-]C(=O)C(F)(F)F)c1ccccc1.O=C([CH-]C(=O)C(F)(F)F)c1ccccc1.O=C([CH-]C(=O)C(F)(F)F)c1ccccc1.O=C([CH-]C(=O)C(F)(F)F)c1ccccc1.[Eu+3].c1ccncc1 [Compound 253995]	–	–	0.78	2.4
CO[C@H]1/C=C\C=C(/C)C(=O)NC2=CC(=O)C(N)=C(C[C@@H](C)C[C@H](OC)[C@H](O)[C@@H](C)/C=C(\C)[C@@H]1OC(N)=O)C2=O [Compound 255109]	–	–	0.77	31.7
CC(C)N.CC(C)N.[Cl-].[Cl-].[OH-].[OH-].[Pt] [Compound 256927]	–	–	1.02	−0.4
